According to patent US5171271A, “Polypeptides with fibronectin activity” (Regents of the University of Minnesota, priority 1991, dated 1992):
Where two headings read alike, the source gives them in different places.

Columns and labels:
[1] = Solid phase heparin-binding assay on Immulon C plates
Description: Both peptides IIa and CS I were then compared for relative heparin-binding activity. Plastic Immulon C plates (Dynatech, Alexandria, Va.) were adsorbed with 100 μl in triplicate) of the indicated levels of peptides IIa, CS I or BSA as described. The ability of the 33 kD fragment to bind heparin was also determined, for comparison, although due to the relative size of this fragment compared with the peptides, different coating concentrations were used. The actual coating levels of the 33 kD fragment were 4, 20, 100 and 500 μg/ml. Following the blocking of nonspecific binding sites with BSA, the ability of these various substrata to bind ^3 H-heparin was determined by the addition of approximately 4,000 disintegrations per minute (dpm) of this ligand. All conditions of the assay were as described in U.S. patent application Ser. No. 89,073, the disclosure of which is incorporated by reference herein.
The three peptides derived from peptide Ila and intact peptide IIa, were adsorbed to Immulon C plates at the indicated concentrations (100 μl/ well) in triplicate and tested for the ability to bind ^3 H-heparin as described hereinabove. The results of this study are summarized on FIG. 5. […] Rather, a specific primary structure is crucial for this activity. […]

[2] = tested on: CNS neurons from spinal cords of 6-day chick embryos; assay: Neurite outgrowth assay, CNS neurons; type: cell-based
Description: Peptides I, II, IIa, III, CSI or intact fibronectin were diluted in Voller's buffer (0.05M Carbonate buffer, pH 9.6) and 100 μl of each concentration was dipensed into 96 well tissue culture plates in triplicate. The plates were then placed in a sterile hood overnight to evaporate the buffer and to dry the peptides onto the plate. The following morning, 200 μl of phosphate-buffered saline (PBS) containing 5 mg/ml bovine serum albumin (PBS/BSA) were added to each well and the plates were incubated for an additional 3 hours. At that point, the PBS/BSA was aspirated and cells in the appropriate media were added to each well.
Embryonic CNS nerve cell cultures were prepared by the method of Rogers et al., Devel. Biol., 98, 212-220 (1983). Briefly, spinal cords from 6-day chick embryos were isolated and their dorsal halves removed and placed Ca^++ -Mg^++ free (CMF) Hank's balanced salt solution for 10 minutes at 37° C. Only the ventral portions, containing predominantly motor neurons, were prepazed for culture. The cords were then dissociated in 0.25% trypsin (Bactotrypsin, Difco) in CMF Hanks for 25 minutes at 37° C. […] The number of neurons with neurites was quantitated by randomly sampling 10 fields with the aid of a dissecting microscope. […]

[3] = tested on: K1735M4 metastatic melanoma cells; conditions: for Tumor Cell Adhesion, Adherent Cells: melanoma cells, one hour
Description: The cells were cultured in Dulbecco's Modified Eagle's Medium containing 5% heat inactivated fetal calf serum. The cultures were grown in 37° C. incubators with a humidified atmosphere containing 5% CO2. Cells were subcultured twice weekly by releasing cells gently from the flask, using 0.05% trypsin and 1 mM EDTA.
The melanoma cells were pulsed in the same fashion as the endothelial cells described hereinabove, except that 2 μCi/ml ^3 HTd(tritiated thymidine) was added to each culture instead of amino acids. The labeled cells were harvested as described for the endothelial cells. The cell adhesion assay was identical to that described hereinabove for the bovine aortic endothelial cell assay.

[4] = tested on: Bovine aortic endothelial cells; assay: Aortic endothelial cell adhesion assay; type: cell-based; conditions: coating concentration 5 μg/ml, 90 minutes
Description: Bovine aortic encothelial cells were isolated according to the following protocol. Aortas were obtained from a local slaughterhouse, washed in cold phosphate buffered saline (PBS) (136 mM NaCI, 2.6 mM KCl, 15.2 mM Na2 HPO4, pH 7.2) and processed within 2 hours. Crude collagenase (CLS III, 125-145 units per mg dry weight, Cooper Biomedical) was used at 2 mg/ml in Dulbecco's modified Eagle's medium (DMEM) (GIBCO). The vessel was clamped at the distal end, filled with the collagenase-PBS solution and digestion was carried out for 10 minutes. The lumenal contents were harvested, followed by the addition of fresh collagenase for two additional 10-minute periods. The enzyme-cell suspensions were added to an equal volume of DMEM containing 10% fetal bovine serum (FBS) to inhibit the enzyme and spun in a centrifuge at 400×g for 10 minutes. The resulting cell pellet was resuspended in DMEM containing 10% FBS, 100 units/ml of penicillin G, 100 μg/ml of streptomycin and 100 μg/ml of crude fibroblast growth factor. Cells are cultured in 75 cm^2 flasks in a humidified 5% CO2 atmosphere at 37° C. Cultures were fed twice a week with the same medium and cells were used in assays when approximately 75% confluent. […]
Adhesion was measured using 96 well microtiter plates adsorbed with fibronectin or peptides I and II. […] The solubilized cells were then quantitated using a liquid scintillation counter. […]

[5] = Heparin-binding assay on nitrocellulose sheets
Description: The assay for heparin binding utilizes nitrocellulose sheets as substrata to bind peptides or proteins to be tested for heparin binding activity. Peptides I and II or intact fibronectin (fn) were solubilized in 50 mM (NH4)2 CO3 and diIuted to the concentrations indicated in FIGS. 2 and 3. Nitrocellulose sheets which had been presoaked in 50 mM NH4 CO3 were placed in a 96 well dot blot apparatus (Bethesda Research Laboratories Bethesda, Md.), and 250 μl of various concentrations of each peptide were aspirated through the wells. Each well was then washed three times with binding buffer (10 mM Tris-HCl, pH 8.0, 0.15 M NaCl), and the filters were removed and allowed to air dry overnight. The filters were then equilibriated for 5 minutes at room temperature in binding buffer which contained 10 mM CaCl2. ^3 H-heparin was then diluted to a concentration of 50,000 cpm/ml in binding buffer (with Ca^++), and nitrocellulose sheets were incubated in the presence of this mixture for 2 hours. The filters were then washed four times with binding buffer, and air dried. The individual spots of samples were cut out of the nitrocellulose and bound heparin was quantitated with a liquid scintillation counter.

| Substance | 3H-heparin binding (in words) [1] | Promotion of neurite extension by CNS neurons (in words) [2] | Promotion of melanoma cell adhesion (in words) [3] | Melanoma Cell Adhesion, Percent Adhesion ([3]; concentration 80 μg/ml) | Melanoma Cell Adhesion, Percent Adhesion ([3]; concentration 400 μg/ml) | Adherent Cells [4] | 3H-heparin binding (in words) [5] | Concentration at which maximum 3H-heparin binding was observed [5] | Tumor Cell Adhesion, Adherent Cells ([3]; coating concentration 1 μg/ml) | Tumor Cell Adhesion, Adherent Cells ([3]; coating concentration 10 μg/ml) | Tumor Cell Adhesion, Adherent Cells ([3]; coating concentration 50 μg/ml) | Tumor Cell Adhesion, Adherent Cells ([3]; coating concentration 100 μg/ml) |
| --- | --- | --- | --- | --- | --- | --- | --- | --- | --- | --- | --- | --- |
| asp-glu-leu-pro-gln-leu-val-thr-leu-pro-his-pro-asn-leu-his-gly-pro-glu-ile-leu-asp-val-pro-ser-thr [Peptide CS I, reference compound] | failed to bind to heparin at any concentration that was tested | CNS neurons appeared to be preferably stimulated by peptide CS I | promoted the adhesion of melanoma cells in culture | 71.7% | 71.0% | – | – | – | – | – | – | – |
| Fibronectin | – | – | – | – | – | 13,714 Counts Per Minute | bound ^3 H-heparin in a concentration dependent manner | 10^-6 M | 4700 Counts Per Minute | 7900 Counts Per Minute | 11,000 Counts Per Minute | 9700 Counts Per Minute |
